Test results published in ChEMBL document CHEMBL2424512, “Discovery and biophysical characterization of 2-amino-oxadiazoles as novel antagonists of PqsR, an important regulator of Pseudomonas aeruginosa virulence” (J Med Chem, 2013).
Activity calls are given as the source filed them. The rule behind the calls is not given here.

Experiments:
[1] = target: T1, Transcriptional regulator MvfR (Pseudomonas aeruginosa PA14, UniProt A0A072ZLE6); assay: Binding affinity to Pseudomonas aeruginosa PA14 biotinylated His6SUMO-tagged PqsR expressed in Eschericia coli BL21 (lamda DE3) by isothermal titration calorimetry
T1 sequence (A0A072ZLE6 whole entry): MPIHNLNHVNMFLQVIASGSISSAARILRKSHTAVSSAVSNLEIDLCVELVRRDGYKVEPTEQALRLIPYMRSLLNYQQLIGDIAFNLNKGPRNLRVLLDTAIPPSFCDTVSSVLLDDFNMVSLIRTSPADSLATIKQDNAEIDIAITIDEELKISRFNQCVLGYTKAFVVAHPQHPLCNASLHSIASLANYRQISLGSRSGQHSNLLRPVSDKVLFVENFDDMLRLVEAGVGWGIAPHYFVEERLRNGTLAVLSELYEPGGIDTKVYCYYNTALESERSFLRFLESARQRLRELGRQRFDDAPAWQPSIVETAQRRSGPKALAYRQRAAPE

[2] = target: T1, Transcriptional regulator MvfR; assay: Binding affinity to Pseudomonas aeruginosa PA14 biotinylated His6SUMO-tagged PqsR expressed in Eschericia coli BL21 (DE3) by surface plasmon resonance spectroscopic analysis
[3] = target: T2, Transcriptional regulator MvfR (Pseudomonas aeruginosa PA14) (UniProt A0A072ZLE6); assay: Antagonist activity at Pseudomonas aeruginosa PA14 PqsR assessed as reduction of pyocyanin level by UHPLC-MS/MS analysis
T2 sequence (whole entry): T1 sequence (A0A072ZLE6 whole entry)

[4] = target: T1, Transcriptional regulator MvfR; assay: Antagonist activity at Pseudomonas aeruginosa PA14 PqsR expressed in Eschericia coli DH5-alpha assessed as inhibition of PQS-induced protein activation by beta-galactosidase reporter gene assay
Pseudomonas aeruginosa = assay: Antibacterial activity against Pseudomonas aeruginosa PA14 at 250 uM after 1 to 8 hrs by spectrophotometer analysis; format: functional, organism-based
[5] = target: T1, Transcriptional regulator MvfR; assay: Antagonist activity at Pseudomonas aeruginosa PA14 PqsR expressed in pqs gene-deficient Pseudomonas aeruginosa PA14 by beta-galactosidase reporter gene assay

| SMILES | Kd [1] [µM] | Kd [2] [µM] | EC50 [4] [µM] | also measured |
| --- | --- | --- | --- | --- |
| NC(=O)c1cccc(Br)c1 | 7.6 | 6.8 |  |  |
| CC(C)(C)c1ccc(C(N)=O)cc1 | 0.9 |  |  |  |
| CC(C)(C)c1ccc(C(=O)NO)cc1 |  |  |  | inhibition [3]: Active |
| Cc1nnc(-c2cccc(C(F)(F)F)c2)o1 | 12.9 |  |  |  |
| CCCCCCCc1[nH]c2ccccc2c(=O)c1O |  | 0.21 |  |  |
| Nc1nnc(-c2ccc(Cl)cc2)o1 |  | 200 |  |  |
| CC(C)(C)c1cccc(-c2nnc(N)o2)c1 | 3.1 |  |  |  |
| FC(F)(F)c1cccc(-c2nnco2)c1 | 6.5 |  | 101 |  |
| Nc1cccc(Br)n1 | 10 | 6.8 |  |  |
| N#Cc1cccc(-c2nnc(N)o2)c1 |  |  | 17.8 |  |
| Nc1nnc(-c2cccc(OC(F)(F)F)c2)o1 |  |  | 46.5 |  |
| COc1cccc(-c2nnc(N)o2)c1 |  |  |  | inhibition [3]: inactive |
| FC(F)(F)c1cc(-c2cccs2)n[nH]1 | 8.5 | 10.7 |  |  |
| Nc1nnc(-c2ccc(Cl)cc2)s1 | 3.7 | 4.5 |  |  |
| Nc1nnc(-c2cccc(Br)c2)o1 |  |  | 7.5 |  |
| NC(=O)c1ccc2ccccc2c1 | 1.8 | 0.8 |  |  |
| CCCCCCCc1cc(=O)c2cc(C(F)(F)F)ccc2[nH]1 |  |  |  | inhibition [3]: Active |
| Nc1nnc(-c2cccc(C(F)(F)F)c2)o1 | 1.3 |  | 7.5 | Activity (Pseudomonas aeruginosa): inactive; EC50 [5]: 38.5 µM |
| Cc1cccc(-c2nnc(N)o2)c1 | 12.4 |  | 57.8 |  |
| Nc1nnc(-c2cccc(Cl)c2)o1 |  |  | 26.7 |  |
